Values quoted from earlier work, collected in PubChem BioAssay AID1259409 (Chemical Carcinogenesis Research Information System (CCRIS), 2018).

Tested on: rodent chemically induced tumor inhibition, incidence and multiplicity
Experiment: CCRIS tumor inhibitor studies

SMILES	tumour outcome (control, treated, inhibition, significance) (Carcinogen: 4-(METHYLNITROSAMINO)-1-(3-PYRIDYL)-1-BUTANONE, 64091-91-4, Dose [Inhibitor]: 0, 0.2 UMOL 1/D FOR 4 D ADMINISTERED PRIOR TO CARCINOGEN TREATMENT (STUDY DURATION: 116 D), Route [Inhibitor]: GAVAGE, Species: MOUSE, Strain/Sex: STRAIN A, Target Tissue: Type of Lesion: LUNG: ADENOMA, Dose [Carcinogen]: 10 UMOL ONCE 2 HR AFTER FINAL DOSE OF INHIBITOR, Promoter: NONE USED)	tumour outcome (control, treated, inhibition, significance) (Carcinogen: 4-(METHYLNITROSAMINO)-1-(3-PYRIDYL)-1-BUTANONE, 64091-91-4, Dose [Inhibitor]: 0, 1 UMOL 1/D FOR 4 D ADMINISTERED PRIOR TO CARCINOGEN TREATMENT (STUDY DURATION: 116 D), Route [Inhibitor]: GAVAGE, Species: MOUSE, Strain/Sex: STRAIN A, Target Tissue: Type of Lesion: LUNG: ADENOMA, Dose [Carcinogen]: 10 UMOL ONCE 2 HR AFTER FINAL DOSE OF INHIBITOR, Promoter: NONE USED)	tumour outcome (control, treated, inhibition, significance) (Carcinogen: 3'-METHYL-4-DIMETHYLAMINOAZOBENZENE, 55-80-1, Dose [Inhibitor]: 118 UG SELENIUM AS HIGH SELENIUM YEAST/GM IN DIET DAILY STARTING 1 WK PRIOR TO START OF CARCINOGEN TREATMENT AND CONTINU, Route [Inhibitor]: ORAL, Species: RAT, Strain/Sex: SPRAGUE-DAWLEY/MALE, Target Tissue: Type of Lesion: LIVER: ADENOCARCINOMA, Dose [Carcinogen]: 0.05% IN DIET DAILY FOR 8 WK, Promoter: NONE USED)	tumour outcome (control, treated, inhibition, significance) (Carcinogen: 4-(METHYLNITROSAMINO)-1-(3-PYRIDYL)-1-BUTANONE, 64091-91-4, Dose [Inhibitor]: 0, 3.75 PPM IN DIET FOR 3 WK BEGINNING 1 WK PRIOR TO CARCINOGEN DOSE (STUDY DURATION: 18 WK), Route [Inhibitor]: ORAL, Species: MOUSE, Strain/Sex: STRAIN-A/FEMALE, Target Tissue: Type of Lesion: LUNG: TUMOR, Dose [Carcinogen]: 10 UMOL IN 0.1 ML SALINE ONCE, Promoter: NONE USED)	tumour outcome (control, treated, inhibition, significance) (Carcinogen: 4-(METHYLNITROSAMINO)-1-(3-PYRIDYL)-1-BUTANONE, 64091-91-4, Dose [Inhibitor]: 0, 3.75 PPM IN DIET FOR 15 WK BEGINNING 1 WK POST CARCINOGEN DOSE (STUDY DURATION: 18 WK), Route [Inhibitor]: ORAL, Species: MOUSE, Strain/Sex: STRAIN-A/FEMALE, Target Tissue: Type of Lesion: LUNG: TUMOR, Dose [Carcinogen]: 10 UMOL IN 0.1 ML SALINE ONCE, Promoter: NONE USED)	tumour outcome (control, treated, inhibition, significance) (Carcinogen: 7,12-DIMETHYLBENZ[A]ANTHRACENE (DMBA) [57-97-6], Dose [Inhibitor]: 20 UG/D GIVEN 2 WK BEFORE DMBA AND DAILY FOR 1 WK (STUDY DURATION: 120 D), Route [Inhibitor]: ORAL (GAVAGE), Species: RAT, Strain/Sex: WISTAR/FEMALE (12,?)/(12,12), Target Tissue: Type of Lesion: MAMMARY GLAND: CARCINOMA, Dose [Carcinogen]: 12 MG ONCE (STUDY DURATION: 120 D))	tumour outcome (control, treated, inhibition, significance) (Carcinogen: 7,12-DIMETHYLBENZ[A]ANTHRACENE, 57-97-6, Dose [Inhibitor]: 0, 0.2 PPM IN DIET BEGINNING 3 D PRIOR TO CARCINOGEN DOSE AND CONTINUING FOR 8 MO (STUDY DURATION: 8 MO), Route [Inhibitor]: ORAL, Species: MOUSE, Strain/Sex: BALB/FEMALE, Target Tissue: Type of Lesion: MAMMARY GLAND: ADENOCARCINOMA, Dose [Carcinogen]: 1 MG/WK FOR 6 WK, Promoter: NONE USED)	tumour outcome (control, treated, inhibition, significance) (Carcinogen: 7,12-DIMETHYLBENZ[A]ANTHRACENE, 57-97-6, Dose [Inhibitor]: 0, 2 PPM IN DIET BEGINNING 3 D PRIOR TO CARCINOGEN DOSE AND CONTINUING FOR 8 MO (STUDY DURATION: 8 MO), Route [Inhibitor]: ORAL, Species: MOUSE, Strain/Sex: BALB/FEMALE, Target Tissue: Type of Lesion: MAMMARY GLAND: ADENOCARCINOMA, Dose [Carcinogen]: 1 MG/WK FOR 6 WK, Promoter: NONE USED)	tumour outcome (control, treated, inhibition, significance) (Carcinogen: AZOXYMETHANE [25843-45-2], Dose [Inhibitor]: 10 PPM IN DIET FOR 56 WK BEGINNING 2 WK PRIOR TO FIRST CARCINOGEN DOSE (STUDY DURATION: 56 WK), Route [Inhibitor]: ORAL, Species: RAT, Strain/Sex: F344/MALE, Target Tissue: Type of Lesion: COLON: ADENOMA OR ADENOCARCINOMA, Dose [Carcinogen]: 15 MG/KG BW 1X/WK FOR 2 WK (STUDY DURATION: 56 WK), Promoter: NONE)	tumour outcome (control, treated, inhibition, significance) (Carcinogen: AZOXYMETHANE [25843-45-2], Dose [Inhibitor]: 15 PPM IN DIET FOR 56 WK BEGINNING 2 WK PRIOR TO FIRST CARCINOGEN DOSE (STUDY DURATION: 56 WK), Route [Inhibitor]: ORAL, Species: RAT, Strain/Sex: F344/MALE, Target Tissue: Type of Lesion: COLON: ADENOMA OR ADENOCARCINOMA, Dose [Carcinogen]: 15 MG/KG BW 1X/WK FOR 2 WK (STUDY DURATION: 56 WK), Promoter: NONE)	tumour outcome (control, treated, inhibition, significance) (Carcinogen: N-METHYL-N-NITROSOUREA, 684-93-5, Dose [Inhibitor]: 5 PPM IN DIET DAILY FOR 128 D STARTING 7 D AFTER CARCINOGEN TREATMENT AND CONTINUING FOR DURATION OF STUDY (STUDY DURATI, Route [Inhibitor]: ORAL, Species: RAT, Strain/Sex: SPRAGUE-DAWLEY/FEMALE, Target Tissue: Type of Lesion: MAMMARY GLAND: CARCINOMA, Dose [Carcinogen]: 50 MG/KG BW IN ACIDIFIED SALINE (PH 4.0) ONCE AT AGE 50 D, Promoter: NONE USED)	tumour outcome (control, treated, inhibition, significance) (Carcinogen: N-METHYL-N-NITROSOUREA, 684-93-5, Dose [Inhibitor]: 6 PPM IN DIET DAILY FOR 128 D STARTING 7 D AFTER CARCINOGEN TREATMENT AND CONTINUING FOR DURATION OF STUDY (STUDY DURATI, Route [Inhibitor]: ORAL, Species: RAT, Strain/Sex: SPRAGUE-DAWLEY/FEMALE, Target Tissue: Type of Lesion: MAMMARY GLAND: CARCINOMA, Dose [Carcinogen]: 50 MG/KG BW IN ACIDIFIED SALINE (PH 4.0) ONCE AT AGE 50 D, Promoter: NONE USED)	tumour outcome (control, treated, inhibition, significance) (Carcinogen: NONE USED, Dose [Inhibitor]: 1 PPM IN DIET DAILY STARTING AT AGE 13.8 MO AND CONTINUING FOR LIFE (STUDY DURATION: LIFE), Route [Inhibitor]: ORAL, Species: MOUSE, Strain/Sex: C3H/FEMALE, Target Tissue: Type of Lesion: MAMMARY GLAND: ADENOCARCINOMA, Promoter: NONE USED)	tumour outcome (control, treated, inhibition, significance) (Carcinogen: NONE USED, Dose [Inhibitor]: 1 PPM IN DIET DAILY STARTING AT WEANING AND CONTINUING FOR LIFE (STUDY DURATION: LIFE), Route [Inhibitor]: ORAL, Species: MOUSE, Strain/Sex: C3H/FEMALE, Target Tissue: Type of Lesion: MAMMARY GLAND: ADENOCARCINOMA, Promoter: NONE USED)	tumour outcome (control, treated, inhibition, significance) (Carcinogen: NONE USED, Dose [Inhibitor]: 1 PPM IN DIET DAILY STARTING AT WEANING AND CONTINUING THROUGH AGE 13.8 MO FOL LOWED BY CONTROL DIET FOR LIFE (STUDY DUR, Route [Inhibitor]: ORAL, Species: MOUSE, Strain/Sex: C3H/FEMALE, Target Tissue: Type of Lesion: MAMMARY GLAND: ADENOCARCINOMA, Promoter: NONE USED)
S=C=NCCCCc1cccnc1	100%, 100%, 0%, not significant	100%, 100%, 0%, not significant													
C[Se]CCC(N)C(=O)O (stereo not given)			11/12 (92%), 9/14 (64%), 30%, p 0.04	100%, 96%, 4%, not significant	100%, 100%, 0%, not significant	33%, 0%, 100%	12/31 (39%), 6/21 (29%), 26%, not calculated	12/31 (39%), 6/23 (26%), 33%, not calculated	76%, 64%, 16%, not significant	76%, 89%, -17%, not significant	90%, 95%, -6%, not significant	90%, 80%, 11%, not significant	20/26 (77%), 12/26 (46%), 40%, p<0.05	20/26 (77%), 7/26 (27%), 65%, p<0.005	20/26 (77%), 18/26 (69%), 10%, not significant
